Measured values taken from PubChem BioAssay (NCI).
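Test compounds were applied to cells in 96-well plates for 48 hours at 5 doses. Definition used: TGI = concentration required for complete inhibition of growth.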

System: P388 leukemia
Experiment: NCI tumour cell line growth inhibition, 48 h

`CS(=O)(=O)OCCCNCCCOS(C)(=O)=O` was tested, and the TGI was 6.52 mM.
